Data on 39 compounds can be found in US20090036420A1, “BENZAMIDE DERIVATIVES AND THEIR USE FOR TREATING CNS DISORDERS” (priority 2007, published 2009).

Structures are written as SMILES. Where two headings read alike, the source gives them in different places.

The assay addresses T1, TAAR1 (Mus musculus, UniProt Q923Y8).
T1 construct: expressed in transfected cells; host or cells: HEK293 cells (ATCC #CRL-1573), stably transfected with pIRESneo2 expression plasmid; membrane preparation
The assay is described as follows: Radioligand binding assay on membranes of HEK293 cells stably expressing TAAR1. Particulars: radioligand [3H]-rac-2-(1,2,3,4-tetrahydro-1-naphthyl)-2-imidazoline 60 nM, 4° C., 30 min. As for the experimental part: The Expand High Fidelity PCR System (Roche Diagnostics) was used with 1.5 mM Mg^2+ and purified PCR products were cloned into pCR2.1-TOPO cloning vector (Invitrogen) following the instructions of the manufacturer. PCR products were subcloned into the pIRESneo2 vector (BD Clontech, Palo Alto, Calif.), and expression vectors were sequence verified before introduction in cell lines.
For the generation of stably transfected cell lines HEK293 cells were transfected with the pIRESneo2 expression plasmids containing the TAAR coding sequences (described above) with Lipofectamine 2000 (Invitrogen) according to the instructions of the manufacturer, and 24 hrs post transfection the culture medium was supplemented with 1 mg/ml G418 (Sigma, Buchs, Switzerland). After a culture period of about 10 d clones were isolated, expanded and tested for responsiveness to trace amines (all compounds purchased from Sigma) with the cAMP Biotrak Enzyme immunoassay (EIA) System (Amersham) following the non-acetylation EIA procedure provided by the manufacturer.
Cells at confluence were rinsed with ice-cold phosphate buffered saline without Ca^2+ and Mg^2+ containing 10 mM EDTA and pelleted by centrifugation at 1000 rpm for 5 min at 4° C. The pellet was then washed twice with ice-cold phosphate buffered saline and cell pellet was frozen immediately by immersion in liquid nitrogen and stored until use at −80° C. Cell pellet was then suspended in 20 ml HEPES-NaOH (20 mM), pH 7.4 containing 10 mM EDTA, and homogenized with a Polytron (PT 3000, Kinematica) at 10,000 rpm for 10 s. The homogenate was centrifuged at 48,000×g for 30 min at 4° C. and the pellet resuspended in 20 ml HEPES-NaOH (20 mM), pH 7.4 containing 0.1 mM EDTA (buffer A), and homogenized with a Polytron at 10,000 rpm for 10 s. The homogenate was then centrifuged at 48,000×g for 30 min at 4° C. and the pellet resuspended in 20 ml buffer A, and homogenized with a Polytron at 10,000 rpm for 10 s. Protein concentration was determined by the method of Pierce (Rockford, Ill.). […] Non-specific binding was defined as the amount of [^3H]-rac-2-(1,2,3,4-tetrahydro-1-naphthyl)-2-imidazoline bound in the presence of the appropriate unlabelled ligand (10 μM). Competing ligands were tested in a wide range of concentrations (10 pM-30 μM). […] Each experiment was performed in duplicate. All incubations were terminated by rapid filtration through UniFilter-96 plates (Packard Instrument Company) and glass filter GF/C, pre-soaked for at least 2 h in polyethylenimine 0.3%, and using a Filtermate 96 Cell Harvester (Packard Instrument Company). The tubes and filters were then washed 3 times with 1 ml aliquots of cold buffer B. Filters were not dried and soaked in Ultima gold (45 μl/well, Packard Instrument Company) and bound radioactivity was counted by a TopCount Microplate Scintillation Counter (Packard Instrument Company).

Where [1] appears, read: read-out: Ki value (μM) in mouse.

T1 sequence (Q923Y8 whole entry): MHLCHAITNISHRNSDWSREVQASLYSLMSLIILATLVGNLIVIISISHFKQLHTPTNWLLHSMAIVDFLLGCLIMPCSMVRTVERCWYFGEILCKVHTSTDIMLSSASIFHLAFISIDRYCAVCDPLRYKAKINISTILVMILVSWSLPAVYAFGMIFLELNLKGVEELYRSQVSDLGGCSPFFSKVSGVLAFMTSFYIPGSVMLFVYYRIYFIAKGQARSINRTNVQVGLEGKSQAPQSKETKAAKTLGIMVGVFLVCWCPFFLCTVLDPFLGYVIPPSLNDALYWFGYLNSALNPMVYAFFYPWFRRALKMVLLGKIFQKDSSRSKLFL

For the compound `CC(=O)c1cccc(NC(=O)c2ccc(N3CCCC3)c(C(F)(F)F)c2)c1` [Example 184, N-(3-Acetyl-phenyl)-4-pyrrolidin-1-yl-3-tri-fluoromethyl-benzamide], the inhibitory constant (Ki) under setting [1] is 0.026 µM. Turning to `COc1cccc(NC(=O)c2ccc(F)c(Cl)c2)c1` [Example 70, 3-Chloro-4-fluoro-N-(3-methoxy-phenyl)-benzamide], under setting [1], the Ki was determined as 0.1 µM.

Regarding `COc1cccc(NC(=O)c2cnc(N3CCC(C)CC3)c(C(F)(F)F)c2)c1` [Example 201], the inhibitory constant (Ki) under setting [1] came to 0.0017 µM. For the setting “Ki value (μM) in mouse”, `COc1cccc(NC(=O)c2cccc(S(=O)(=O)N3CCCCCC3)c2)c1` [Example 170, 3-(Azepane-1-sulfonyl)-N-(3-methoxy-phenyl)-benzamide] yielded a Ki of 0.024 µM. In the case of `COc1cccc(NC(=O)c2cnc(N3CCCC3)c(C(F)(F)F)c2)c1` [Example 179, N-(3-Methoxy-phenyl)-6-pyrrolidin-1-yl-5-trifluoromethyl-nicotinamide], under setting [1], the Ki was 0.002 µM. As for `CCCCNc1ncc(C(=O)Nc2cccc(OC)c2)cc1Cl` [Example 208], the affinity (Ki value (μM) in mouse) corresponds to a Ki of 0.0463 µM. Still for that read-out and setting: to `O=C(Nc1cccc(Cl)c1)c1ccc(N2CCCC2)c(C(F)(F)F)c1` [Example 186, N-(3-Chloro-phenyl)-4-pyrrolidin-1-yl-3-trifluoro-methyl-benzamide] belongs 0.02 µM. With `COc1cccc(NC(=O)c2cnc(Cl)c(Cl)c2)c1` [Example 78, 5,6-Dichloro-N-(3-methoxy-phenyl)-nicotinamide], the inhibition constant Ki under setting [1] came out at 0.048 µM.

As for `CCOc1cccc(NC(=O)c2ccc(N3CCCC3)c(C(F)(F)F)c2)c1` [Example 181, N-(3-Ethoxy-phenyl)-4-pyrrolidin-1-yl-3-trifluoro-methyl-benzamide], the inhibition constant (Ki) under setting [1] was 0.001 µM. The same measure, in the same setting: then `COc1cccc(NC(=O)c2ccc(F)c([N+](=O)[O-])c2)c1` [Example 85, 4-Fluoro-N-(3-methoxy-phenyl)-3-nitro-benzamide], with 0.09 µM; and `O=C(Nc1ccccc1)c1ccc(Cl)c(C(F)(F)F)c1` [Example 6, 4-Chloro-N-phenyl-3-trifluoromethyl-benzamide], with 0.098 µM. The same measure, in the same setting: then `COc1cccc(NC(=O)c2ccc(N3CC(C)CC(C)C3)c(C(F)(F)F)c2)c1` (racemic) [Example 194, (rac,meso)-4-(3,5-Dimethyl-piperidin-1-yl)-N-(3-methoxy-phenyl)-3-trifluoromethyl-benzamide], with 0.007 µM. The same measure, in the same setting: then `COc1cccc(NC(=O)c2ccc(NC(C)C)c([N+](=O)[O-])c2)c1` [Example 91, 4-Isopropylamino-N-(3-methoxy-phenyl)-3-nitro-benzamide], with 0.012 µM; and `COCCNc1ccc(C(=O)Nc2cccc(OC)c2)cc1C(F)(F)F` [Example 139, 4-(2-Methoxy-ethylamino)-N-(3-methoxy-phenyl)-3-trifluoromethyl-benzamide], with 0.077 µM. Consider `CN1CCN(c2ncc(C(=O)Nc3cccc(Cl)c3)cc2Cl)CC1` [Example 164, 5-Chloro-N-(3-chloro-phenyl)-6-(4-methyl-piperazin-1-yl)-nicotinamide], for which the Ki under setting [1] was found to be 0.001 µM. Still for that read-out and setting: to `COc1cccc(NC(=O)c2ccc(NCc3ccccc3)c([N+](=O)[O-])c2)c1` [Example 88, 4-Benzylamino-N-(3-methoxy-phenyl)-3-nitro-benzamide] belongs 0.005 µM; to `O=C(Nc1cccc(Cl)c1)c1ccc(N2CCNCC2)nc1` [Example 84, N-(3-Chloro-phenyl)-6-piperazin-1-yl-nicotinamide], 0.076 µM; to `COc1cccc(NC(=O)c2ccc(Cl)c([N+](=O)[O-])c2)c1` [Example 12, 4-Chloro-N-(3-methoxy-phenyl)-3-nitro-benzamide], 0.037 µM.

As for `COc1cccc(NC(=O)c2ccc(N3CCCC3)c([N+](=O)[O-])c2)c1` [Example 93, N-(3-Methoxy-phenyl)-3-nitro-4-pyrrolidin-1-yl-benzamide], under setting [1], the Ki stood at 0.013 µM.

On to `COc1cccc(NC(=O)c2ccc(N3CCC(C)CC3)c(C(F)(F)F)c2)c1` [Example 143, N-(3-Methoxy-phenyl)-4-(4-methyl-piperidin-1-yl)-3-trifluoromethyl-benzamide], for which the Ki under setting [1] worked out at 0.007 µM. With `COc1cccc(NC(=O)c2ccc(N3CCCC3)c(C(F)(F)F)c2)c1` [Example 137, N-(3-Methoxy-phenyl)-4-pyrrolidin-1-yl-3-trifluoromethyl-benzamide], under setting [1], the Ki is 0.002 µM. Still for that read-out and setting: then `COc1cccc(NC(=O)c2ccc(Cl)c(C(F)(F)F)c2)c1` [Example 216, 4-Chloro-N-(3-methoxy-phenyl)-3-trifluoromethyl-benzamide], with 0.0058 µM; and `O=C(Nc1cccc(OC(F)(F)C(F)F)c1)c1ccc(N2CCCC2)c(C(F)(F)F)c1` [Example 192, 4-Pyrrolidin-1-yl-N-[3-(1,1,2,2-tetrafluoro-ethoxy)-phenyl]-3-trifluoro-methyl-benzamide], with 0.039 µM; and `COc1cccc(NC(=O)c2ccc(NCc3ccccc3)c(C(F)(F)F)c2)c1` [Example 147, 4-Benzylamino-N-(3-methoxy-phenyl)-3-trifluoromethyl-benzamide], with 0.005 µM. For `O=C(Nc1cccc(F)c1)c1ccc(N2CCCC2)c(C(F)(F)F)c1` [Example 185, N-(3-Fluoro-phenyl)-4-pyrrolidin-1-yl-3-trifluoro-methyl-benzamide], the Ki under setting [1] turned out to be 0.009 µM. The same measure, in the same setting: then `COc1cccc(NC(=O)c2ccc(N3CCCCC3)c([N+](=O)[O-])c2)c1` [Example 94, N-(3-Methoxy-phenyl)-3-nitro-4-piperidin-1-yl-benzamide], with 0.012 µM; and `CNc1ncc(C(=O)Nc2cccc(Cl)c2)cc1Cl` [Example 151, 5-Chloro-N-(3-chloro-phenyl)-6-methylamino-nicotinamide], with 0.096 µM; and `O=C(Nc1cccc(Cl)c1)c1ccc(Cl)c(Cl)c1` [Example 218, 3,3′,4-Trichlorobenzanilide], with 0.06 µM. Turning to `COc1cccc(NC(=O)c2cnc(N3CCCC3)c(Cl)c2)c1` [Example 205], the inhibition constant (Ki) under setting [1] amounted to 0.0101 µM.

As for `CCNc1ccc(C(=O)Nc2cccc(OC)c2)cc1C(F)(F)F` [Example 148, 4-Ethylamino-N-(3-methoxy-phenyl)-3-trifluoromethyl-benzamide], the Ki under setting [1] came to 0.022 µM.

As for `COc1cccc(NC(=O)c2ccc(N3CCC(C(F)(F)F)CC3)c(C(F)(F)F)c2)c1` [Example 197, N-(3-Methoxy-phenyl)-3-trifluoromethyl-4-(4-trifluoromethyl-piperidin-1-yl)-benzamide], under setting [1], the Ki stood at 0.003 µM.

In the case of `COc1cccc(NC(=O)c2ccc(N3CCCCCC3)c(C(F)(F)F)c2)c1` [Example 195, 4-Azepan-1-yl-N-(3-methoxy-phenyl)-3-trifluoromethyl-benzamide], the Ki under setting [1] was determined as 0.011 µM. Still for that read-out and setting: then `O=C(Nc1cccc(Cl)c1)c1ccc(Cl)c(Cl)c1` [Example 283, 3,4-Dichloro-N-(3-chloro-phenyl)-benzamide], with 0.06 µM. On the same count and under the same terms, to `CCNc1ncc(C(=O)Nc2cccc(Cl)c2)cc1Cl` [Example 156, 5-Chloro-N-(3-chloro-phenyl)-6-ethylamino-nicotinamide] belongs 0.039 µM.

For `CN1CCN(c2ccc(C(=O)Nc3cccc(Cl)c3)cn2)CC1` [Example 135, N-(3-Chloro-phenyl)-6-(4-methyl-piperazin-1-yl)-nicotinamide], the Ki under setting [1] was found to be 0.009 µM. Regarding `CCCNc1ccc(C(=O)Nc2cccc(OC)c2)cc1[N+](=O)[O-]` [Example 87, N-(3-Methoxy-phenyl)-3-nitro-4-propylamino-benzamide], under setting [1], the inhibitory constant (Ki) came to 0.004 µM. Same read-out and setting: to `O=C(Nc1ccccc1)c1ccc([N+](=O)[O-])c(C(F)(F)F)c1` [Example 219, 3-Trifluoromethyl-4-nitro-N-phenyl-benzamide] belongs 0.067 µM; to `O=C(Nc1cccc(Br)c1)c1ccc(N2CCCC2)c(C(F)(F)F)c1` [Example 187, N-(3-Bromo-phenyl)-4-pyrrolidin-1-yl-3-trifluoro-methyl-benzamide], 0.046 µM.

As to `O=C(Nc1ccccc1)c1ccc(Cl)c(Cl)c1` [Example 217, 3,4-Dichloro-N-phenyl-benzamide], the Ki under setting [1] worked out at 0.054 µM.

Broadly, the Ki is a measure of affinity in units of concentration, obtained from inhibition or displacement.
